Reference: patent US20080226596A1, “Therapeutic compositions and methods useful in treating hepatitis” (priority 2006, published 2008)
“Also recorded” adds a separate entry of the source.

What was measured:
[1] = test system: DS cells; experiment: DS lymphoma cell growth, MTT assay; format: cell-based, human; conditions: day 3; IFN-alpha 1,000 u/ml
Protocol: (§1) For cell proliferation assays, cells were grown in 10% FCS culture medium containing various amounts of IFNs and/or sodium stibogluconate in 96 well plates and cultured at 37° C. for 3 or 6 days as indicated. The numbers of viable cells in proliferation assays were determined by MTT assays as described in Phatak et al., J. Immunol. 167, 3391 (2001).

[2] = test system: C42 cells; experiment: C42 prostate cancer cell growth; format: cell-based, human
Protocol: as §1

[3] = test system: Stat1 tyrosine phosphorylation; experiment: IFN-alpha-induced Stat1 tyrosine phosphorylation in human cancer cell lines; format: cell-based
Protocol: Cell lysates were prepared by lysing cells in cold lysis buffer for 30 min and cleared by centrifuging at 14,000 rpm at 4° C. for 15 min. For SDS-PAGE, cell lysates were mixed with equal volume of 2×SDS-PAGE sample buffer, heated at 90° C. for 5 min and separated in 10% SDS-PAGE gels. Cellular proteins in SDS-PAGE gels were transferred to nitrocellulose membrane (Schleicher & Schuell, Keene, N.H.), blocked in 5% milk, probed with antibodies and detected by using an enhanced chemiluminescence kit (ECL, Amersham, Arlington Heights, Ill.).

[4] = test system: Renca tumors; experiment: Renca tumors in Balb/c mice; format: in vivo; conditions: end of treatment; listed as SSG
Protocol: Balb/c and athymic nude Balb/c mice (10 weeks old, female, Taconic Farms, Germantown, N.Y.) were inoculated (s.c.) at the flanks with Renca cells (10^6 cells/site). […] The dose of SSG was similar to the effective daily dose of the drug for the treatment of murine leishmaniasis (Murray, H. W., J. D. Berman, and S. D. Wright. 1988. Immunochemotherapy for intracellular Leishmania donovani infection: gamma interferon plus pentavalent antimony. J Infect Dis 157:973). Tumor volume was measured during the study period and calculated using the formula for a prolate spheroid (V=4/3×a2b) (Lindner, D. J., E. C. Borden, and D. V. Kalvakolanu. 1997. Synergistic antitumor effects of a combination of interferons and retinoic acid on human tumor cells in vitro and in vivo. Clin Cancer Res 3:931). Student's t test was used for assessing the significance of tumor volume differences among differential treatment groups. Mouse viability (daily) and body weights (weekly) were also recorded during the study period. At the end of the study, Renca tumors and major internal organs (heart, kidney, liver, lung and spleen) were harvested for histology and immunohistochemistry analysis.

[5] = test system: SK-N-SH cells; experiment: SK-N-SH neuroblastoma cell growth, MTT assay; format: cell-based, human; conditions: 100 μg/ml, day 6
Protocol: NIH3T3 (Yi, et al., Blood 85, 87 (1995)), WM9 (Forsberg, et al., Proc. Nat. Acad Sci. USA 90, 393 (1993)), DU145 (Mickey, et al., Cancer Res. 37, 4049 (1977)), LoVo (Drewinko, et al., Cancer Res. 36, 467 (1976)), HEY (Buick, et al., Cancer Res. 45, 3668 (1985)), U251 (Yoshida, et al., Cancer 50, 410 (1982)), A549 (Giard, et al., J. Natl. Cancer Inst. 51, 1417 (1973)) and SK-N-SH (Helson, et al., Cancer Res. 35, 2594 (1975)) cell lines have been described and were cultured in RPMI 1640 supplemented with 10% fetal calf serum (FCS). For measurement of sodium stibogluconate effects on cell growth in vitro, cells were cultured in the absence (−) or presence (+) of various amounts of sodium stibogluconate for 6 days with viable cells quantified by MTT assays (Mosmann, J. Immunol. Methods 65, 55 (1983)). Percentages of growth inhibition by sodium stibogluconate were calculated (.+−.x

[6] = test system: NB4 cells; experiment: NB4 cell cycle analysis; format: cell-based, human; conditions: 3 days; sodium stibogluconate 250 μg/ml, ATRA 1 μM
Protocol: The cell cycle was analyzed by flow cytometry after 3 days of culture of NB4 cells in the absence or presence of sodium stibogluconate (250 µg/ml) or ATRA (1 μM). Briefly, the cells were fixed in cold ethanol and incubated for 30 minutes at 4° C. in the dark with a solution of 50 […], 1 mg/ml RNase and 0.1% NP-40. Analysis was performed immediately after staining using the CELLFIT program (Becton Dickinson, Mountain View, Calif.).

[7] = test system: NB4 cells; experiment: NB4 differentiation, NBT reduction; format: cell-based, human
Protocol: Differentiation of AML cell lines was assessed by their ability to produce superoxide as measured by reduction of NBT to formazan and by analysis of expression of CD11b surface marker by flow cytometry. For NBT reduction, each cell suspension was mixed with an equal volume of solution containing 1 mg/ml of NBT (Sigma) and 2.5 µg/ml of TPA for 30 minutes at 37° C. After incubation, cells containing the purple formazan deposits and cells devoid of NBT-reducing activity (white cells) in each sample were determined by counting 200 cells under microscope. Data is expressed as a percentage based on the following ratio: purple cells/purple+white cells. For analysis of cell surface antigens, cells were exposed to phycoerythrin (PE)-conjugated murine anti-human CD11b (DAKO Corp., Carpinteria, Calif.). Analysis of fluorescence was performed on a FACScan flow cytometer (Beckton Dickinson, Mountain View, Calif.).

[8] = test system: MDA231 cells; experiment: MDA231 breast cancer cell growth, MTT assay; format: cell-based, human; conditions: single agent, 50-100 μg/ml, day 6
Protocol: as §1

SMILES: O.O.O.O.O.O.O.O.O.O=C([O-])[C@@H]1[O][Sb]2([O-])([O][Sb]34([OH])[O][C@H]([C@H](O)CO)[C@H]([O]3)[C@H](C(=O)[O-])[O]4)[O][C@H]([C@H](O)CO)[C@@H]1[O]2.[Na+].[Na+].[Na+] [sodium stibogluconate]
- activity against DS cells [1]: modest activity
- effect on C42 cells [2]: highly resistant
- Stat1 tyrosine phosphorylation by drug alone ([3]; DR cells, absence of IFN-alpha): failed to induce Stat1 tyrosine phosphorylation
- IFN-alpha-induced Stat1 tyrosine phosphorylation ([3]; DU145 cells, 5 hours post-stimulation): Enhanced
- IFN-alpha-induced Stat1 tyrosine phosphorylation ([3]; WM9 cells, 5 hours post-stimulation): Enhanced
- IFN-alpha-induced Stat1 tyrosine phosphorylation ([3]; WM35 cells): failed to enhance
- IFN-alpha-induced Stat1 tyrosine phosphorylation ([3]; WiT49-N1 cells): failed to enhance
- tolerance/survival of treated Balb/c mice [4]: tolerated; also recorded: all mice in the treatment group survived
- killing of SK-N-SH cells [5]: near-complete cell killing
- NB4 cell cycle effect [6]: significant increase of cells at S phase
- NB4 differentiation induction ([7]; 10 to 400 μg/ml, day 3 or day 6): differentiation induction activity at all of the dosages
- reversal of NB4 differentiation after drug removal ([7]; 6 days with drug (10 or 100 μg/ml), washed, 6 days without): not reversed
- killing of MDA231 cells [8]: killed all cells; also recorded: complete or near complete killing
